Source: publication PMC4607644 (Bioorganic & medicinal chemistry letters, 2015)
Where two headings read alike, the source gives them in different places.

Legend:
[1] = Phase 1 and 2 metabolism; cited from earlier work
InhA = details: binds preferentially to InhA:NAD+ complex; cited from earlier work
[2] = in vivo, iv
M. tuberculosis = details: cited from earlier work
PET brain uptake = details: baboon, i.v.
MRSA = details: cited from earlier work
[3] = system: Staphylococcus aureus FabI (saFabI); details: cited from earlier work
[4] = set-up: species or system baboon; details: in vivo
[5] = set-up: species or system mice; details: mouse, in vivo

CCCCCCc1ccc(Oc2ccccc2)c(O)c1 [PT04]
route of metabolism [1]: O-glucuronidation was a primary route for metabolism

CCCCCCc1ccc(Oc2ccccc2C)c(O)c1 [PT70]
residence time on the target (InhA): 24 min
ability to penetrate the blood brain barrier (BBB) [2]: able to penetrate the brain
antibacterial activity in a mouse model of tuberculosis infection (M. tuberculosis): shows antibacterial activity
bacterial burden in the lungs (M. tuberculosis; infected mice, lungs): did not affect the bacterial burden
bacterial load in the spleens (M. tuberculosis; infected mice, spleens): reduced the bacterial load

CCCCCCc1ccc(Oc2ccccc2C#N)c(O)c1 [PT119]
ability to penetrate the blood brain barrier (BBB) (PET brain uptake; images acquired for 90 min): able to penetrate the brain
propensity to cross the BBB, qualitative comparison (PET brain uptake; qualitative): higher propensity to cross the BBB than PT70
efficacy in a mouse model of MRSA infection (MRSA): demonstrates efficacy
residence time on saFabI [3]: ~ 12.5 h

CCCCCCc1ccc(Oc2ccccc2[11CH3])c(O)c1 [[^11C]PT70]
elimination into the bladder ([4]; baboon): another large portion of the injected [11C]PT-70 was eliminated into the bladder
clearance from the heart, lung and blood ([4]; iv): cleared rapidly
concentration in the liver versus other peripheral organs [5]: much higher in the liver
time of highest concentration of drug after injection [5]: 20 min
